Laboratory results: BindingDB's records for doi:10.1021/jm990587w (Alcon Laboratories, 2000)
pKi: −log10 of the molar value.

Molecular target: Prostaglandin F2-alpha receptor (Bos taurus)
Test: Inhibitory Binding constant (n=2) to Prostanoid FP receptor expressed in bovine corpus luteum

O=C(O)CCC/C=C\C[C@@H]1[C@@H](/C=C/[C@H](O)COc2cccc(Cl)c2)[C@H](O)CC[C@@H]1O [7-{2-[4-(3-Chloro-phenoxy)-3-hydroxy-but-1-enyl]-3,6-dihydroxy-cyclohexyl}-hept-5-enoic acid]
pKi: 4.25

O=C(O)CCC/C=C\C[C@@H]1[C@@H](/C=C/[C@@H](O)COc2cccc(Cl)c2)[C@H](O)CC[C@@H]1O [7-{2-[4-(3-Chloro-phenoxy)-3-hydroxy-but-1-enyl]-3,6-dihydroxy-cyclohexyl}-hept-5-enoic acid]
pKi: 5.72
